Source: patent publication US6936723B2, “Synthetic salicylihalamides, apicularens and derivatives thereof” (Board of Regents, The University of Texas System, priority 2000, dated 2005)
Read-outs that look alike come from different tables or passages of the source. One block for each compound: values may come before it.

How the values were obtained:
[1] = target: T1, purified reconstituted V-ATPase from bovine brain (Bos taurus, UniProt P23956+P61420+Q29466+Q2TA24); test: Inhibition of purified reconstituted V-ATPase (proton pumping); assay type: biochemical
T1 construct: from tissue; host or cells: bovine brain
Excerpt: Therefore, the present invention provides a method for inhibiting the proton-pumping activity of V-ATPase by contacting V-ATPase, either in vitro or in vivo with the compounds of the present invention. […] See Boyd, M. R. et al., J Pharmacol. Exp. Ther. 297, 114-120 (2001); see also, PCT publication WO 00/51589 of Boyd et al. V-ATPase is composed of an ATPase domain and a proton translocating membraneous channel. […] See Crider, Xie and Stone, J. Biol. Chem. 269:17379-17381 (1994) for the experimental procedure for binding. […] See Example 7 and Table 5 below. See also Bill. Crider, Xie and Stone, J Biol. Chem. 269:17379-17381 (1994).
Others in the art typically use crude membrane preparations to assay V-ATPase activity.

[2] = test system: human melanoma cell line SK-MEL-5; test: Growth inhibition of the SK-MEL-5 human melanoma cell line (MTT assay); assay type: cell-based; conditions: for GI50: Homo sapiens; for growth inhibitory activity in the cell-based assay: SK-MEL-5 cell-based assay
Procedure: A cell-based assay looking for growth inhibition of the SK-MEL 5 human melanoma cell line was performed.

H358 = test: Growth inhibition of tumor cell lines compared to TAXOL: H358; assay type: cell-based; conditions: Homo sapiens, NCI-H358
Procedure: (§1) In addition, the ability of compounds 323a/c and 343 to inhibit growth of a number of tumor cell lines was tested and compared to TAXOL's ability to inhibit growth of these tumor cell lines.

H2058 = test: Growth inhibition of tumor cell lines compared to TAXOL: H2058; assay type: cell-based
Procedure: as §1

NCI 60-cell line panel = test: NCI 60-cell line human tumor screen (sulforhodamine B); assay type: cell-based; conditions: 48 hours incubation, 10^−6 to 10^−10 molar
Excerpt: The NCI 60-cell line human tumor screen is a measure of the effectiveness of a compound for inhibiting or killing various human cancers. It is a set of 60 different cancer cell lines against which chemical compounds can be tested against to determine if the compound has anti-cancer activity. Each compound has an individual “fingerprint” based on effectiveness in killing each of the 60 cancer cell lines.
The anti-cancer activity of the synthesized (+)- and (−)-salicylihalamide-A compounds of the present invention (compounds 78 in FIG. 10 and 301a/301c in FIG. 14.) was indistinguishable. […] Salicylihalamide derivatives, showing increased stability over natural salicylihalamide, were tested in the NCI 60 cell-line screen. This screen is an art recognized model. Prior to assay, synthesized compounds were stored in dimethylsulfoxide at −70° C. Five different test concentrations of each compound were prepared by diluting the stock solution into complete medium. Sample concentrations were 2× the final concentration and range from 10^−6 and 10^−10 molar. An aliquot of each concentration of each compound was added to separate microtiter wells containing the respective cell lines in culture medium. The plates were incubated for 48 hours at 37° C. with 5% CO2 and 100% humidity. Adherent cells were fixed by addition of cold 50% trichloracetic acid and incubation at 4° C. for 60 minutes. Suspended cells were fixed to the bottom of the well by addition of 80% trichloracetic acid. The supernatant was removed from each well and then each well was washed with deionized water and allowed to dry. Sulforhodamine B solution was added to each well and allowed to incubate for 10 minutes at room temperature. Unbound sulforhodamine B was removed by washing with 1% acetic acid. The wells were allowed to dry. Bound sulforhodamine B was solubilized using 10 mM Tris base and the optical density at 515 nanometers was determined.

H2009 = test: Growth inhibition of tumor cell lines compared to TAXOL: H2009; assay type: cell-based; conditions: Homo sapiens, NCI-H2009
Procedure: as §1

H175 = test: Growth inhibition of tumor cell lines compared to TAXOL: H175; assay type: cell-based
Procedure: as §1

H1299 = test: Growth inhibition of tumor cell lines compared to TAXOL: H1299; assay type: cell-based; conditions: Homo sapiens, NCI-H1299
Procedure: as §1

H1264 = test: Growth inhibition of tumor cell lines compared to TAXOL: H1264; assay type: cell-based
Procedure: as §1

SK-MEL-28 cells = test: Anti-cancer activity against SK-MEL-28 cells; assay type: cell-based, human
Excerpt: The inventor has accomplished the first synthesis of both […] and (−)-salicylihalamide A. The synthesis utilizes a highly efficient, trans-selective ring-closing olefin metathesis for the assembly of the benzolactone skeleton and can be readily adapted to obtain a variety of analogs. […] This cell line is one of the cell lines in the NCI 60 cell line screen.
The absolute configuration of natural salicylihalamide A (1a) was originally misassigned in Boyd et al., 1997. The correct configuration is represented by structure 89. The ultimate proof for this assignment came from a crystallographic analysis of a p-bromobenzoate derivative of salicylihalamide 90, prepared from 73 in a manner similar to the synthesis of 74. […] (−)-salicylihalamide A does have chemotherapeutic activity. […] This cell line is one of the cell lines in the NCI 60 cell line screen.

[3] = target: trans-membraneous proton channel domain of V-ATPase (Bos taurus, UniProt P23956+P61420+Q29466+Q2TA24); test: Incubation with V-ATPase domains independently: proton channel domain; assay type: biochemical
trans-membraneous proton channel domain of V-ATPase, sequence (P61420 whole entry, other chains not shown, the tested form may be a part): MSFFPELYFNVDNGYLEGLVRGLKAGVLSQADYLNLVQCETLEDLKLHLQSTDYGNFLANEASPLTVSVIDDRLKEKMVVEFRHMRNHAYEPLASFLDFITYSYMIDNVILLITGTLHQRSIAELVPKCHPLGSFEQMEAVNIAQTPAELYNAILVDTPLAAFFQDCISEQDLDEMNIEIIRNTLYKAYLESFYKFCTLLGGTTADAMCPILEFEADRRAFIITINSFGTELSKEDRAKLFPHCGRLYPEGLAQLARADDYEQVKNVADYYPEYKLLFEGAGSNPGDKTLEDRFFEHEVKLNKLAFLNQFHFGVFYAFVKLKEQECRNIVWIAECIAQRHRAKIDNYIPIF
trans-membraneous proton channel domain of V-ATPase, sequence (P23956 whole entry, other chains not shown, the tested form may be a part): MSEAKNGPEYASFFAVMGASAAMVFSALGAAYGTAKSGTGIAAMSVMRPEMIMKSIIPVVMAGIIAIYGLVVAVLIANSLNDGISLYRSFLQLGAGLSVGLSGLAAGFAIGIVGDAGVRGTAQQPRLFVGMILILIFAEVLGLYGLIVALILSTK
trans-membraneous proton channel domain of V-ATPase, sequence (Q29466 whole entry, other chains not shown, the tested form may be a part): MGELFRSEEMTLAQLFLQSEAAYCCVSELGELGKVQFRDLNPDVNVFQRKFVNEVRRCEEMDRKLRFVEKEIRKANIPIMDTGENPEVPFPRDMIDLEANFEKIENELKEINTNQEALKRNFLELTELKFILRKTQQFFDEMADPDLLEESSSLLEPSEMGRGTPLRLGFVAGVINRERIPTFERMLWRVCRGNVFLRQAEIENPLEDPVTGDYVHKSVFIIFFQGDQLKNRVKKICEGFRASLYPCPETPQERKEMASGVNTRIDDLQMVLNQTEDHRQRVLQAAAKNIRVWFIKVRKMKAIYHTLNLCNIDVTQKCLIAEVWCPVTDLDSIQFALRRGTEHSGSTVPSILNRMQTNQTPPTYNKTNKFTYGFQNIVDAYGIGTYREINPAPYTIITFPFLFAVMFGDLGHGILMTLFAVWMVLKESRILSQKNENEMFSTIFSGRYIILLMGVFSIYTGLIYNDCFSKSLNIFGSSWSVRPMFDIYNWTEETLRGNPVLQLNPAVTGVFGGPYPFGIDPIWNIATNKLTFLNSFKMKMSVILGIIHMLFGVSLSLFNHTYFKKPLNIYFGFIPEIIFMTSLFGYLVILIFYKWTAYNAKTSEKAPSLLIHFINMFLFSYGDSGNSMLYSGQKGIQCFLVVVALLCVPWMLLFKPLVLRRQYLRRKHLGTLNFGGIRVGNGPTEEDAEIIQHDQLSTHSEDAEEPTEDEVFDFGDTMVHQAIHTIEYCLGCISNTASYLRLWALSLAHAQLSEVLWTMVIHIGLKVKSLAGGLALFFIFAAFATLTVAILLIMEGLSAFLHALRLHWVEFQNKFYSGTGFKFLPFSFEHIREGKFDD
trans-membraneous proton channel domain of V-ATPase, sequence (Q2TA24 whole entry, other chains not shown, the tested form may be a part): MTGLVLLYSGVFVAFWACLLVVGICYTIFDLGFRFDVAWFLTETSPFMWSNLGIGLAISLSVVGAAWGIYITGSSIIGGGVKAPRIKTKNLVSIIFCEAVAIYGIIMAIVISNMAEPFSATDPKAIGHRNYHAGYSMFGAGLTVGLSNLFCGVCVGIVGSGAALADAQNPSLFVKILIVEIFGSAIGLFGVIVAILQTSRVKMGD
Excerpt: Therefore, the present invention provides a method for inhibiting the proton-pumping activity of V-ATPase by contacting V-ATPase, either in vitro or in vivo with the compounds of the present invention. Inhibition of the proton-pumping activity of V-ATPase is useful, inter alia, for the treatment and prevention of cancer and osteoporosis. […] See Boyd, M. R. et al., J Pharmacol. Exp. Ther. 297, 114-120 (2001); see also, PCT publication WO 00/51589 of Boyd et al. V-ATPase is composed of an ATPase domain and a proton translocating membraneous channel. […] See Crider, Xie and Stone, J. Biol. Chem. 269:17379-17381 (1994) for the experimental procedure for binding. This was shown by incubating select compounds of the present invention with the domains independently and showing that 70% of the channel activity was inhibited at 1 nM of the compound while there was virtually no interference with ATPase activity at the same concentration. See Example 7 and Table 5 below. See also Bill. Crider, Xie and Stone, J Biol. Chem. 269:17379-17381 (1994).

[4] = purified reconstituted V-ATPase from bovine brain, inhibition of proton pumping, read-out: IC50
[5] = 48 h, SK-MEL-5, growth determined 2 days after addition by MTT assay, triplicate assays at 4 concentrations, read-out: GI50

IC50 [1, 4]: > 1000 nM | GI50 [2, 5]: > 20000 nM
Compound: CCCCCCCC(=O)OCC[C@H]1C[C@@H](O)[C@@H](C)C/C=C/Cc2cccc(O)c2C(=O)O1 [Compound 355]
growth inhibitory activity in the cell-based assay [2]: completely inactive

Compound: CCCCC#CC(=O)N/C=C/CC1C[C@@H](O)[C@@H](C)C/C=C/Cc2cccc(O)c2C(=O)O1 (some centres unmarked) [Compound 350]
IC50 [1]: 1 nM | GI50 [2, 5]: 300 nM

Compound: CC/C=C\C=C/C(=O)N/C=C/C[C@H]1C[C@@H](O)[C@@H](C)C/C=C/Cc2cccc(O)c2C(=O)O1 [301a/301c]
IC50 [1]: 0.34 nM | GI50 (H358): 1.6 nM | GI50 ([2]; SK-MEL-5, 48 h): 30 nM | GI50 (H2058): 3.2 nM | activity / differential cytotoxicity profile in the NCI 60-cell line screen (NCI 60-cell line panel; listed as 1:1 mixture of salicylihalamide A (1) and C22-E isomer 211): indistinguishable, within the limits of experimental error, from natural salicylihalamide A | GI50 (H2009): 2 nM | GI50 (H175): 0.2 nM | GI50 (H1299): 3.2 nM | GI50 (H1264): 31.6 nM

GI50 (H358; cell line H358, read-out: GI50): 5 nM | GI50 (H2058; cell line H2058, read-out: GI50): 5 nM | GI50 (H2009; cell line H2009, read-out: GI50): 5 nM | GI50 (H175; cell line H175, read-out: GI50): 5 nM | GI50 (H1299; cell line H1299, read-out: GI50): 5 nM | GI50 (H1264; cell line H1264, read-out: GI50): 5 nM
Compound: CC(=O)O[C@H]1C(=O)[C@@]2(C)[C@H]([C@H](OC(=O)c3ccccc3)[C@]3(O)C[C@H](OC(=O)[C@H](O)[C@@H](NC(=O)c4ccccc4)c4ccccc4)C(C)=C1C3(C)C)[C@]1(OC(C)=O)CO[C@@H]1C[C@@H]2O [TAXOL, reference compound]

Compound: CCCCCCC(=O)N/C=C/C[C@H]1C[C@@H](O)[C@@H](C)C/C=C/Cc2cccc(O)c2C(=O)O1 [Compound 346]
IC50 [1]: 0.8 nM | GI50 [2, 5]: 380 nM

Compound: CO/C1=C\C(C)=C\[C@@H](C)[C@@H](O)[C@@H](C)C/C(C)=C/C=C/[C@H](OC)[C@@H]([C@@H](C)[C@@H](O)[C@H](C)[C@@]2(O)C[C@@H](O)[C@H](C)[C@@H](C(C)C)O2)OC1=O [Bafilomycin A, reference compound]
IC50 [1, 4]: 3.1 nM

Compound: CC/C=C\C=C/C(=O)N(/C=C/C[C@H]1C[C@@H](O)[C@@H](C)C/C=C/Cc2cccc(O)c2C(=O)O1)C(=O)N/C=C/C[C@H]1C[C@@H](O)[C@@H](C)C/C=C/Cc2cccc(O)c2C(=O)O1 [Compound 343]
IC50 [1]: 0.37 nM | GI50 (H358): 10 nM | GI50 ([2]; SK-MEL-5, 48 h): 40 nM | GI50 (H2058): 6.3 nM | GI50 (H2009): 1.6 nM | GI50 (H175): 0.2 nM | GI50 (H1299): 5 nM | GI50 (H1264): 31.6 nM

Compound: C=CCOC(=O)/C=C/CC1C[C@@H](O)[C@@H](C)C/C=C/Cc2cccc(O)c2C(=O)O1 (some centres unmarked) [Compound 335b]
IC50 [1, 4]: 230 nM | GI50 [2, 5]: > 20000 nM | growth inhibitory activity in the cell-based assay [2]: completely inactive

Compound: CC(C)=CCC/C(C)=C/CC/C(C)=C/COC(=O)N/C=C/CC1C[C@@H](O)[C@@H](C)C/C=C/Cc2cccc(O)c2C(=O)O1 (some centres unmarked) [Compound 353]
IC50 [1]: > 1800 nM | GI50 [2, 5]: > 20000 nM

Compound: CCCCCCC(=O)N(/C=C/C[C@H]1C[C@@H](O)[C@@H](C)C/C=C/Cc2cccc(O)c2C(=O)O1)C(=O)N/C=C/C[C@H]1C[C@@H](O)[C@@H](C)C/C=C/Cc2cccc(O)c2C(=O)O1 [Compound 345]
IC50 [1]: 3 nM | GI50 [2, 5]: 600 nM

Compound: (+)-salicylihalamide A [Compound 87]
anti-cancer activity against SK-MEL-28 cells (SK-MEL-28 cells; at 20 μM): inactive | IC50 [1, 4]: 270 nM | activity / differential cytotoxicity profile in the NCI 60-cell line screen (NCI 60-cell line panel): completerly inactive | activity / differential cytotoxicity profile in the NCI 60-cell line screen (NCI 60-cell line panel; listed as ent-301a): devoid of growth inhibitory activity

Compound: CCCCCSC(=O)N/C=C/CC1C[C@@H](O)[C@@H](C)C/C=C/Cc2cccc(O)c2C(=O)O1 (some centres unmarked) [Compound 352]
IC50 [1]: 1.8 nM | GI50 [2, 5]: 450 nM

Compound: CCCCCOC(=O)N/C=C/C[C@H]1C[C@@H](O)[C@@H](C)C/C=C/Cc2cccc(O)c2C(=O)O1 [Compound 351]
IC50 [1]: 0.2 nM | GI50 [2, 5]: 500 nM

Compound: CCC=CC=CC(=O)NC=CCC1CC2CC(O)CC(Cc3cccc(O)c3C(=O)O1)O2 (centres unmarked) [Apicularen A]
IC50 [1]: < 1 nM | GI50 [2, 5]: 6 nM

Compound: CCCCCOC(=O)N/C=C/C[C@H]1C[C@@H](O)[C@@H](C)C/C=C/Cc2cccc(OC(=O)c3ccccc3)c2C(=O)O1 [Compound 366]
IC50 [1, 4]: 300 nM | GI50 [2, 5]: 1000 nM

Compound: CCCCCOC(=O)NCCC[C@H]1C[C@@H](O)[C@@H](C)CCCCc2cccc(O)c2C(=O)O1 [Compound 362]
IC50 [1]: 75.7 nM | GI50 [2, 5]: > 20000 nM | growth inhibitory activity in the cell-based assay [2]: completely abolished antiproliferative potential

Compound: CCCCCOC(=O)N/C=C/C[C@H]1C[C@@H](O)[C@@H](C)CCCCc2cccc(O)c2C(=O)O1 [Compound 361]
IC50 [1]: 9.3 nM | GI50 [2, 5]: 8000 nM | growth inhibitory activity in the cell-based assay [2]: retained a significant, although attenuated, level of growth inhibitory activity

Compound: CC/C=C\C=C/C(=O)N/C=C/C[C@H]1C[C@@H](O)[C@@H](C)C/C=C/Cc2cccc(O)c2C(=O)O1 [Compound 301a, salicylihalamide A]
anti-cancer activity against SK-MEL-28 cells (SK-MEL-28 cells; at 10 nM): active | binding site on V-ATPase [3]: membrane spanning Vo proton channel | mode of V-ATPase inhibition (reversibility) [1]: reversible inhibitor | activity / differential cytotoxicity profile in the NCI 60-cell line screen (NCI 60-cell line panel): differential cytotoxicity profile undistinguishable from the natural product

Compound: C[C@H]1C/C=C/Cc2cccc(O)c2C(=O)OC(C/C=C/NC(=O)C#Cc2ccccc2)C[C@H]1O (some centres unmarked) [Compound 349]
IC50 [1]: 0.75 nM | GI50 [2, 5]: 300 nM
